US12285432B2, “Treatment of hair loss disorders with deuterated JAK inhibitors” (Sun Pharmaceutical Industries, Inc., priority 2021, dated 2025)
Read-outs that look alike come from different tables or passages of the source.

Key:
alopecia areata = experiment: Human clinical trials of CTP-543 in patients suffering from alopecia areata; type: in vivo
[1] = Drug-drug interaction study of Compound (I) (CTP-543) and itraconazole in healthy volunteers, plasma pharmacokinetics; type: in vivo, human
[2] = cited from earlier work
[3] = 12 mg Compound (I) alone (Reference), healthy volunteers, plasma
[4] = 12 mg Compound (I) with vs without itraconazole
[5] = 10 mg ruxolitinib with vs without ketoconazole 200 mg twice a day, healthy volunteers

| SMILES | hair growth in patients suffering from alopecia areata (alopecia areata) | AUC(0-Tlast) [1, 3] | AUC(0-∞) [1, 3] | AUC(0-Tlast) ([1]; 12 mg Compound (I) with itraconazole 200 mg (Test), healthy volunteers, plasma) | increase in the AUC as a result of dosing with itraconazole [1, 4] | increase in the Cmax as a result of dosing with itraconazole [1, 4] | half-life ([1]; Compound (I) without itraconazole) | Cmax ([1]; human, plasma, 12 mg) | half-life ([1]; human, plasma, 12 mg, read-out: t1/2 (converted)) | half-life ([1]; human, plasma, read-out: half-life (converted)) | half-life ([2]; 10 mg ruxolitinib dosed with ketoconazole) | AUC increase as a result of dosing with ketoconazole [2, 5] | Cmax increase as a result of dosing with ketoconazole [2, 5] | half-life ([2]; 10 mg ruxolitinib without ketoconazole) |
| --- | --- | --- | --- | --- | --- | --- | --- | --- | --- | --- | --- | --- | --- | --- |
| [2H]C1([2H])C([C@@H](CC#N)n2cc(-c3ncnc4[nH]ccc34)cn2)C([2H])([2H])C([2H])([2H])C1([2H])[2H] [Compound (I), (R)-3-(4-(7H-pyrrolo[2,3-d]pyrimidin-4-yl)-1H-pyrazol-1-yl)-3-(cyclopentyl-2,2,3,3,4,4,5,5-d8)propanenitrile] | stimulate hair growth | 1326.80 ng·h/mL | 1332.48 ng·h/mL | 1679.53 ng·h/mL | ~27% | ~13% | 4.18 h | 266 ng/mL | 4.13 h | 4.62 h | – | – | – | – |
| N#CC[C@H](C1CCCC1)n1cc(-c2ncnc3[nH]ccc23)cn1.O=P(O)(O)O [ruxolitinib, (R)-3-(4-(7H-pyrrolo[2,3-d]pyrimidin-4-yl)-1H-pyrazol-1-yl)-3-cyclopentylpropanenitrile phosphate] | – | – | – | – | – | – | – | – | – | – | 6.0 h | 91% | 33% | 3.7 h |
